In ChEMBL document CHEMBL4602695, “Discovery and SARs of 5-Chloro-N4-phenyl-N2-(pyridin-2-yl)pyrimidine-2,4-diamine Derivatives as Oral Available and Dual CDK 6 and 9 Inhibitors with Potent Antitumor Activity” (J Med Chem, 2020):
Active and inactive are the calls of the source. No cut-off for these calls is given here.

Columns and labels:
[1] = target: CDK9/Cyclin K (Homo sapiens) (UniProt P50750+O75909); conditions: Sf9
CDK2/Cyclin A2 = CDK2/Cyclin A2 (Homo sapiens, UniProt P24941); parameters: species or system Sf9
Jurkat = assay: Antiproliferative activity against human Jurkat cells assessed as inhibition of cell proliferation measured after 48 hrs by CCK8 assay; type: functional, cell-based
MCF7 = assay: Antiproliferative activity against human MCF7 cells assessed as inhibition of cell proliferation measured after 48 hrs by CCK8 assay; type: functional, cell-based; conditions: MCF7, 48 h
[2] = Cytotoxicity against human L02 cells assessed as inhibition of cell proliferation measured after 48 hrs by CCK8 assay; type: cell-based
MDA-MB-231 = assay: Antiproliferative activity against human MDA-MB-231 cells assessed as inhibition of cell proliferation measured after 48 hrs by CCK8 assay; type: functional, cell-based; conditions: MDA-MB-231, 48 h
CDK6/cyclin D3 = CDK6/cyclin D3 (Homo sapiens, UniProt Q00534); parameters: species or system Sf9
CDK9/Cyclin K = CDK9/Cyclin K (Homo sapiens, UniProt P50750); assay: biochemical
Sequence of CDK9/Cyclin K (P50750 whole entry): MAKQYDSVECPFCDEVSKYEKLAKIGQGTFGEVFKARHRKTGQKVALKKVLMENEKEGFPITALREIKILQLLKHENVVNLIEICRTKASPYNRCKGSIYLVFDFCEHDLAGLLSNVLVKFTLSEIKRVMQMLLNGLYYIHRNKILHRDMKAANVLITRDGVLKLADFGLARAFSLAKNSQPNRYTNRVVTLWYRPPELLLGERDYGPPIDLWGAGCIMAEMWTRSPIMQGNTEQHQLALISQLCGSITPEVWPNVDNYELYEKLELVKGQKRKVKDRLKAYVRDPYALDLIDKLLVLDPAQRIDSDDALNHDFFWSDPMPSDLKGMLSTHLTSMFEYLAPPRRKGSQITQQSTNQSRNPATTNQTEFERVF
Sequence of CDK9/Cyclin K (O75909 whole entry, further chain): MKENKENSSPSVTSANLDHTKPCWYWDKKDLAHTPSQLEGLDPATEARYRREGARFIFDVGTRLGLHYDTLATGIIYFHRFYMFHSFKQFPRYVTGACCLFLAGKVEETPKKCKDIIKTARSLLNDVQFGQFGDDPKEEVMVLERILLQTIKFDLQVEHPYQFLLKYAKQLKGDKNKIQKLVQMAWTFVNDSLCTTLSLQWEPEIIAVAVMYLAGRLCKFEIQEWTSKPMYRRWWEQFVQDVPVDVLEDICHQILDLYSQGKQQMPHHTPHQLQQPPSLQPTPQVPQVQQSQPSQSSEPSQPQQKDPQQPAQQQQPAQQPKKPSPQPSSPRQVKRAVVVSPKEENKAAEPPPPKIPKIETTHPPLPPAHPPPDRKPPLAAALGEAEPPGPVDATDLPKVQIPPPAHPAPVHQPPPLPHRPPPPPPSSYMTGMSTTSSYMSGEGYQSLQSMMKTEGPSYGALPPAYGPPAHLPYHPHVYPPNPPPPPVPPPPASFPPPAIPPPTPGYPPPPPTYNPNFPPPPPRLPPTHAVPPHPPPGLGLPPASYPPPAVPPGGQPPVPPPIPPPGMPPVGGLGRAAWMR

Sequence of CDK6/cyclin D3 (P30281 whole entry): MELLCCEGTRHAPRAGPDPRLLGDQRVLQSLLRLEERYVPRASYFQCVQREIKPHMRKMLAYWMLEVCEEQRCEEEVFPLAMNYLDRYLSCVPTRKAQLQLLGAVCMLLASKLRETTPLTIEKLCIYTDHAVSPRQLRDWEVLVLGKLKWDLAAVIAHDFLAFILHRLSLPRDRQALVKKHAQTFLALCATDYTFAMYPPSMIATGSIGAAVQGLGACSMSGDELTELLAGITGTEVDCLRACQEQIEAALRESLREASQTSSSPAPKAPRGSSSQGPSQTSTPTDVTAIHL
Sequence of CDK6/cyclin D3 (Q00534 whole entry): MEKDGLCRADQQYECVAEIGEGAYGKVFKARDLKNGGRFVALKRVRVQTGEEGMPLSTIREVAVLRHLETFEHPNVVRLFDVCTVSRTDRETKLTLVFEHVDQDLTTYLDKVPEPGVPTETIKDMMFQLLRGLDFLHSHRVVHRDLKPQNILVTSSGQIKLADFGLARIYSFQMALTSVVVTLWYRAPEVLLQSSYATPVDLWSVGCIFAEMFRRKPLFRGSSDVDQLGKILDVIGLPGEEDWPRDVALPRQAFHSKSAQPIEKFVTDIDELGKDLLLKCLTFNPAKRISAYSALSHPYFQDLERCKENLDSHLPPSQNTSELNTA

Row | Compound | inhibition [1] | IC50 (CDK2/Cyclin A2) | GI50 (Jurkat) | GI50 (MCF7) | GI50 at 48 h [2] | GI50 (MDA-MB-231) | IC50 (CDK6/cyclin D3) | IC50 (CDK9/Cyclin K)
1 | CN1CCN(c2ccc(Nc3ncc(Cl)c(Nc4ccc(C(F)(F)F)cc4)n3)nc2)CC1 | inactive |  |  |  |  |  |  | 
2 | CN1CCN(c2ccc(Nc3ncc(Cl)c(Nc4ccc(F)c(C(F)(F)F)c4)n3)nc2)CC1 | inactive |  |  |  |  |  |  | 
3 | CN1CCN(c2ccc(Nc3ncc(Cl)c(Nc4ccc(OC(F)(F)F)cc4)n3)nc2)CC1 | inactive |  |  |  |  |  |  | 
4 | Cc1ccccc1Nc1nc(Nc2ccc(N3CCNCC3)cn2)ncc1Cl |  | 2.06 µM | 7.87 µM | 3.41 µM | 1.85 µM | 5.06 µM | 0.042 µM | 0.114 µM
5 | Cc1ccc(CNc2nc(Nc3ccc(N4CCN(C)CC4)cn3)ncc2Cl)cc1 |  | > 10 µM | 12.7 µM | 38.1 µM | > 100 µM | 18.6 µM | 1.04 µM | > 10 µM
6 | Cc1ccccc1Nc1nc(Nc2ccc(N3CCCN(C)CC3)cc2)ncc1Cl |  | 1.59 µM | 11.3 µM | 4.29 µM | 1.24 µM | 6.39 µM | 0.536 µM | 0.88 µM
7 | Cc1ccccc1Nc1nc(Nc2ccc(N3CCN(C)CC3)cc2)ncc1Cl |  | 1.19 µM | 13.7 µM | 20.6 µM | 6.51 µM | 7.02 µM | 0.143 µM | 0.434 µM
8 | Cc1ccccc1Nc1nc(Nc2ccccc2)ncc1Cl |  | > 10 µM | > 100 µM | > 100 µM | > 100 µM | > 100 µM | > 10 µM | > 10 µM
9 | CN1CCN(c2ccc(Nc3ncc(Cl)c(Nc4cccc(F)c4)n3)nc2)CC1 | inactive |  |  |  |  |  |  | 
10 | CN1CCN(c2ccc(Nc3ncc(Cl)c(NCCc4ccccc4)n3)nc2)CC1 |  | > 10 µM | > 100 µM | 11.8 µM | 14.9 µM | > 100 µM | > 10 µM | > 10 µM
11 | COc1ccc(CCNc2nc(Nc3ccc(N4CCN(C)CC4)cn3)ncc2Cl)cc1 |  | > 10 µM | > 100 µM | 38.4 µM | > 100 µM | > 100 µM | > 10 µM | > 10 µM
12 | CN1CCN(c2ccc(Nc3ncc(Cl)c(NCCc4ccc(F)cc4)n3)nc2)CC1 |  | > 10 µM | > 100 µM | > 100 µM | > 100 µM | 28.5 µM | > 10 µM | > 10 µM
13 | Cc1cccc(Nc2nc(Nc3ccc(N4CCN(C)CC4)cn3)ncc2Cl)c1 |  | > 10 µM | 15.3 µM | 7.16 µM | 6.08 µM | 5.27 µM | 0.08 µM | 0.431 µM
14 | Cc1ccccc1Nc1nc(Nc2ccc(N3CCCCC3)cn2)ncc1Cl |  | 4.84 µM | > 100 µM | 21.4 µM | 42.4 µM | > 100 µM | > 10 µM | > 10 µM
15 | COc1ccc(CNc2nc(Nc3ccc(N4CCN(C)CC4)cn3)ncc2Cl)cc1 |  | > 10 µM | 12.9 µM | 17.3 µM | 12.9 µM | 14.9 µM | 0.64 µM | > 10 µM
16 | CN1CCN(c2ccc(Nc3ncc(Cl)c(NCCc4ccccc4F)n3)nc2)CC1 |  | > 10 µM | 14.3 µM | 8.73 µM | 9.67 µM | > 100 µM | 3.71 µM | > 10 µM

Row | Compound | inhibition [1] | IC50 (CDK2/Cyclin A2) | GI50 (Jurkat) | GI50 (MCF7) | GI50 at 48 h [2] | GI50 (MDA-MB-231) | IC50 (CDK6/cyclin D3) | IC50 (CDK9/Cyclin K)
17 | Cc1ccc(Nc2ncc(Cl)c(Nc3ccccc3C)n2)cc1 |  | > 10 µM | > 100 µM | > 100 µM | > 100 µM | > 100 µM | > 10 µM | > 10 µM
18 | CCN1CCN(c2ccc(Nc3ncc(Cl)c(Nc4ccccc4C)n3)nc2)CC1 |  | 9.18 µM | > 100 µM | > 100 µM | > 100 µM | > 100 µM | > 10 µM | > 10 µM
19 | Cc1ccccc1Nc1nc(Nc2ccncc2)ncc1Cl |  | 6.23 µM | > 100 µM | 98.5 µM | > 100 µM | 68.1 µM | > 10 µM | > 10 µM
20 | COc1ccccc1CNc1nc(Nc2ccc(N3CCN(C)CC3)cn2)ncc1Cl |  | > 10 µM | 10.8 µM | > 100 µM | 25.5 µM | 29.3 µM | > 10 µM | > 10 µM
21 | Cc1ccccc1Nc1nc(NCc2ccco2)ncc1Cl |  | > 10 µM | > 100 µM | > 100 µM | > 100 µM | > 100 µM | > 10 µM | > 10 µM
22 | Cc1ccccc1Nc1nc(Nc2ccc(N3CCN(C(=O)OC(C)(C)C)CC3)cc2)ncc1Cl |  | 0.192 µM | 5.12 µM | 2.25 µM | 1.75 µM | 3.26 µM | 0.116 µM | 0.176 µM
23 | Cc1cc(C)c(Nc2nc(Nc3ccc(N4CCN(C)CC4)cn3)ncc2Cl)c(C)c1 |  | > 10 µM | 7.6 µM | 9.47 µM | 20.5 µM | 21 µM | 8.87 µM | > 10 µM
24 | CN1CCN(c2ccc(Nc3ncc(Cl)c(NCc4ccccc4)n3)nc2)CC1 |  | > 10 µM | > 100 µM | 17.3 µM | 20.3 µM | 24.8 µM | > 10 µM | > 10 µM
25 | Cc1ccccc1Nc1nc(NCc2ccccc2)ncc1Cl |  | > 10 µM | > 100 µM | > 100 µM | > 100 µM | > 100 µM | > 10 µM | > 10 µM
26 | Cc1ccccc1Nc1nc(NCc2ccncc2)ncc1Cl |  | > 10 µM | > 100 µM | > 100 µM | > 100 µM | > 100 µM | > 10 µM | > 10 µM
27 | Cc1ccccc1Nc1nc(Nc2cc(Cl)ccn2)ncc1Cl |  | > 10 µM | 39.6 µM | > 100 µM | 41.5 µM | 52.4 µM | > 10 µM | > 10 µM
28 | Cc1ccccc1Nc1nc(NCCc2cccnc2)ncc1Cl |  | > 10 µM | > 100 µM | > 100 µM | > 100 µM | > 100 µM | > 10 µM | > 10 µM
29 | CC(C)c1cccc(Nc2nc(Nc3ccc(N4CCN(C)CC4)cn3)ncc2Cl)c1 |  | > 10 µM | 12.2 µM | 8.64 µM | 12.5 µM | 5.59 µM | 0.452 µM | 0.654 µM
30 | CN1CCN(c2ccc(Nc3ncc(Cl)c(NCc4ccco4)n3)nc2)CC1 |  | > 10 µM | > 100 µM | 21.3 µM | 45.7 µM | 11 µM | 0.279 µM | > 10 µM
31 | CN1CCN(c2ccc(Nc3ncc(Cl)c(NCc4ccc(F)cc4)n3)nc2)CC1 |  | > 10 µM | > 100 µM | 19.3 µM | 39.7 µM | > 100 µM | > 10 µM | > 10 µM
